The text below walks through data of patent US8637511B2, “Aminopyrimidines useful as kinase inhibitors” (Vertex Pharmaceuticals Incorporated, priority 2005, dated 2014).

pKi: −log10 of the molar value. Several values for one entry are separate records, joined by “and”; a condition that tells them apart may be missing. Equal values may be shown once. Read-outs that look alike come from different tables or passages of the source.

Assay [1] deals with T1, Aurora-2 (Aurora A) (Homo sapiens, UniProt O14965).
T1 sequence (O14965 1-403): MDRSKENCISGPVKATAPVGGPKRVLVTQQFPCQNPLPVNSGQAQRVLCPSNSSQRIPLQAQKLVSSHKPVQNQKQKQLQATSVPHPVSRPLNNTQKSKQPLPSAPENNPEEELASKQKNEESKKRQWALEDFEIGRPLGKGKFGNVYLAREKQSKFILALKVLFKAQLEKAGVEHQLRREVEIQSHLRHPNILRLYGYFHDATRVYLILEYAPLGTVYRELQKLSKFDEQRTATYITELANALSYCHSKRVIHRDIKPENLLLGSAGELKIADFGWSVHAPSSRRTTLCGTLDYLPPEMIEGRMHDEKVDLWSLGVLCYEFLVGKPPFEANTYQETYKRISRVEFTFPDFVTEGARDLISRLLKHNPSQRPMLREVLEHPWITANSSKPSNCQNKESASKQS
Put plainly: Aurora-2 (Aurora A) inhibition assay, coupled enzyme. The format is biochemical. A digest of the protocol:
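These rates came from NADH consumption coupled through pyruvate kinase and lactate dehydrogenase (100 mM Hepes pH 7.5, 10 mM MgCl2, 300 μM NADH). Aurora-2 was present at 40 nM, and the reaction ran at 30 °C after a 10 min preincubation.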

For assay [2], the target named is Aurora-1 (Aurora B) (Homo sapiens, UniProt Q96GD4). Put plainly: Aurora-1 (Aurora B) inhibition assay (radiometric). It counts as biochemical. The note with it: read-out: Aurora B kinase Ki value. The gist of the method: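 Ki values come from non-linear regression of background-corrected initial-rate data. The enzyme was preincubated 10 min at 25° C with compound, then reacted 3 h with 800 μM (final) [γ-^33P]-ATP in HEPES pH 7.5/MgCl2/BSA/glycerol buffer. The reaction was stopped with phosphoric acid and substrate-bound ^33P counted on phosphocellulose.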
Sequence of Aurora-1 (Aurora B) (Q96GD4 whole entry): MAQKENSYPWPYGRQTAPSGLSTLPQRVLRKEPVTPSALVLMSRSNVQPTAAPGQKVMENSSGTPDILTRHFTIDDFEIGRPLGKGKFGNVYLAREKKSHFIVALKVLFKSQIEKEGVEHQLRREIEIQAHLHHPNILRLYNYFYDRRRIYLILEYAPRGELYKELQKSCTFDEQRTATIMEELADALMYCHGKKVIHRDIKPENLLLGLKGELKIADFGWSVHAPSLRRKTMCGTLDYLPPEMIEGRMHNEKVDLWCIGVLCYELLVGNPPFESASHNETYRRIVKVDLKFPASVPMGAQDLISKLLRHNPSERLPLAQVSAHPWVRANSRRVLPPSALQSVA

Setting [3] is: read-out: Aurora A kinase Ki value.

Turning to `Cc1cc(Nc2cc(N3CC(F)(C4CC4)C3)nc(Sc3ccc4nc(C(F)(F)F)cn4c3)n2)[nH]n1` [Compound 190], the pKi – broadly, the Ki on a negative log10 scale, so that one unit is a factor of ten – in assay [1] (setting [3]) is 8.30 to 9.00; in assay [2], 7.30 to 8.00.
On to `Cc1ccc(C(=O)Nc2ccc(Sc3nc(Nc4cc(C)n[nH]4)cc(N4CCC4)n3)cc2)cn1` [Compound 145], for which the pKi in assay [1] (setting [3]) was 6.70 to 8.30; in assay [2] it was 5.70 to 7.30.
Turning to `Cc1cc(Nc2cc(N3CC(F)(C4CC4)C3)nc(Sc3ccc(-c4ncc(C)o4)cc3)n2)[nH]n1` [Compound 175], the results for the pKi in assay [1] (setting [3]) and in assay [2] were 6.70 to 8.30 and 5.70 to 7.30, respectively.
On the same counts, the results for `Cc1cc(Nc2cc(N3CCC3)nc(Sc3ccc(NC(=O)c4ccncc4C(F)(F)F)cc3)n2)[nH]n1` [Compound 146] are no less than 9.00 and no less than 8.00.
Turning to `Cc1cc(Nc2cc(N3CC(N4CCOCC4)C3)nc(Sc3ccc(NC(=O)CC(F)(F)F)cc3)n2)[nH]n1` [Compound 199], the pKi in assay [1] (setting [3]) is no less than 9.00; in assay [2], no less than 8.00.
Taken in the same sequence, the figures for `Cc1cc(Nc2cc(N3CC(F)(C4CC4)C3)nc(Sc3ccc(N)cc3)n2)[nH]n1` [Compound 209] were 6.70 to 8.30 and 5.70 to 7.30.
As to `CCC(=O)Nc1ccc(Sc2nc(Nc3cc(C)n[nH]3)cc(N3CC(O)(C(F)(F)F)C3)n2)cc1` [Compound 94], the negative-log Ki (pKi) is 8.30 to 9.00 in assay [1] (setting [3]); 7.30 to 8.00 and > 7.60 in assay [2].
Take `COc1ccc(C(=O)Nc2ccc(Sc3nc(Nc4cc(C)n[nH]4)cc(N4CCC4)n3)cc2)cc1` [Compound 117]: the pKi in assay [1] (setting [3]) was 8.30 to 9.00; in assay [2], 7.30 to 8.00.
Regarding `Cc1cc(Nc2cc(N3CC(N4CCOCC4)C3)nc(Sc3ccc(NC(=O)C4(C(F)(F)F)CC4)cc3)n2)[nH]n1` [Compound 191], the pKi in assay [1] (setting [3]) was no less than 9.00; in assay [2], no less than 8.00.
Regarding `Cc1cc(Nc2cc(N3CCC3)nc(Oc3ccc(NC(=O)c4ccccc4C(F)(F)F)cc3)n2)[nH]n1` [Compound 134], the pKi in assay [1] (setting [3]) was 8.30 to 9.00; in assay [2] it was 7.30 to 8.00 and > 7.60.
For the molecule `Cc1cc(Nc2cc(N3CC(C)(O)C3)nc(Sc3ccc(NC(=O)c4ccccc4C(F)(F)F)cc3)n2)[nH]n1` [Compound 115], the figures for the pKi in assay [1] and in assay [2] were no less than 9.00 and no less than 8.00, respectively.
As for `Cc1cc(Nc2cc(N3CCC3)nc(Sc3ccc(C(=O)Nc4ccccc4Cl)cc3)n2)[nH]n1` [Compound 48], the pKi in assay [1] (setting [3]) is 8.30 to 9.00; in assay [2], no less than 8.00.
In the case of `Cc1ccc2cc(Sc3nc(Nc4cc(C)[nH]n4)cc(N4CC(C5CCC(F)C5)C4)n3)ccc2n1` (stereo not drawn) [Compound 198], the pKi is 8.30 to 9.00 in assay [1] (setting [3]); 7.30 to 8.00 and > 7.60 in assay [2].
Turning to `Cc1cc(Nc2cc(N3CCC3)nc(Sc3ccc(NC(=O)C(F)(F)F)cc3)n2)[nH]n1` [Compound 158], the figures for the pKi in assay [1] (setting [3]) and in assay [2] were 8.30 to 9.00 and no less than 8.00, respectively.
On to `Cc1cc(Nc2cc(N3CCC3)nc(Sc3ccc(NC(=O)C4CC4(F)F)cc3)n2)[nH]n1` (stereo not drawn) [Compound 112], for which the pKi in assay [1] (setting [3]) is 8.30 to 9.00; in assay [2], 7.30 to 8.00 and > 7.60.
Turning to `Cc1cc(Nc2cc(N3CCC3)nc(Sc3ccc(C(=O)NCc4ccccc4Cl)cc3)n2)n[nH]1` [Compound 24], the results for the pKi in assay [1] and in assay [2] were 6.70 to 8.30 and 5.70 to 7.30, respectively.
As for `Cc1cc(Nc2cc(N3CCC3)nc(Sc3ccc(NC(=O)C(C)(C)C)cc3)n2)[nH]n1` [Compound 114], the values for the pKi in assay [1] (setting [3]) and in assay [2] were 8.30 to 9.00 and 7.30 to 8.00, respectively.
Consider `CCC(=O)Nc1ccc(Sc2nc(Nc3cc(C)n[nH]3)cc(N3CC(C)(OC(C)(C)C)C3)n2)cc1` [Compound 96], for which the pKi is 8.30 to 9.00 in assay [1] (setting [3]); 7.30 to 8.00 and > 7.60 in assay [2].
`Cc1cc(Nc2cc(N3CCC3)nc(Sc3ccc(NS(C)(=O)=O)cc3)n2)[nH]n1` [Compound 150]: the figures for the pKi in assay [1] (setting [3]) and in assay [2] were 6.70 to 8.30 and 5.70 to 7.30, respectively.
Consider `Cc1ccc2cc(Sc3nc(Nc4cc(C)[nH]n4)cc(N4CC(N5CCCC5)C4)n3)ccc2n1` [Compound 182], for which the pKi is 8.30 to 9.00 in assay [1] (setting [3]); 7.30 to 8.00 and > 7.60 in assay [2].
Take `Cc1cc(Nc2cc(N3CCC3)nc(Sc3ccc(C(=O)NCc4ccccc4)cc3)n2)n[nH]1` [Compound 19]: the pKi was 6.70 to 8.30 in assay [1] and no less than 8.00 in assay [2].
`Cc1cc(Nc2cc(N3CC(N4CC[C@H](F)C4)C3)nc(Sc3ccc4ncccc4c3)n2)n[nH]1` [Compound 160]: the pKi is no less than 9.00 in assay [1] and no less than 8.00 in assay [2].
Turning to `Cc1cc(Nc2cc(N3CCC3)nc(Sc3ccc(NC(=O)NCc4ccccc4)cc3)n2)n[nH]1` [Compound 74], the values for the negative-log Ki (pKi) in assay [1] (setting [3]) and in assay [2] were 6.70 to 8.30 and 5.70 to 7.30, respectively.
As for `Cc1cc(Nc2cc(N3CCC3)nc(Sc3ccc(NC(=O)CCC(F)(F)F)cc3)n2)[nH]n1` [Compound 121], the pKi in assay [1] (setting [3]) was 8.30 to 9.00; in assay [2], 7.30 to 8.00 and > 7.60.
Consider `Cc1cc(Nc2cc(N3CCC3)nc(Sc3ccc(N)cc3)n2)[nH]n1` [Compound 108], for which the pKi in assay [1] (setting [3]) is 6.70 to 8.30; in assay [2], 5.70 to 7.30.
On to `CCC(=O)Nc1ccc(Sc2nc(Nc3cc(C4CC4)n[nH]3)cc(N3CC(N4CCOCC4)C3)n2)cc1` [Compound 78], for which the figures for the pKi in assay [1] (setting [3]) and in assay [2] were no less than 9.00 and no less than 8.00, respectively.
On to `Cc1cc(Nc2cc(N3CC(F)(C4CC4)C3)nc(Sc3ccc4nc(C(F)(F)F)[nH]c4c3)n2)[nH]n1` [Compound 202], for which the pKi in assay [1] (setting [3]) was 8.30 to 9.00; in assay [2], 7.30 to 8.00 and > 7.60.
Regarding `COC1CN(c2cc(Nc3cc(C)n[nH]3)nc(Sc3ccc(NC(=O)c4ccccc4C(F)(F)F)cc3)n2)C1` [Compound 126], the results for the pKi in assay [1] (setting [3]) and in assay [2] were no less than 9.00 and no less than 8.00, respectively.
Take `CCC(=O)Nc1ccc(Sc2nc(Nc3cc(C)n[nH]3)cc(N3CC(C)(OC(C)C)C3)n2)cc1` [Compound 95]: the pKi was 8.30 to 9.00 in assay [1] (setting [3]); 7.30 to 8.00 and > 7.60 in assay [2].
For the molecule `O=C(CC(F)(F)F)Nc1ccc(Sc2nc(Nc3cc[nH]n3)cc(N3CC(F)(C4CC4)C3)n2)cc1` [Compound 148], the pKi is 8.30 to 9.00 in assay [1] (setting [3]) and 5.70 to 7.30 in assay [2].
On to `Cc1cc(Nc2cc(N3CCC3)nc(Sc3ccc(NC(=O)c4ccccc4N(C)C)cc3)n2)[nH]n1` [Compound 124], for which the pKi was 6.70 to 8.30 in assay [1] (setting [3]) and 5.70 to 7.30 in assay [2].
As for `Cc1cc(Nc2cc(N3CCC3)nc(Sc3ccc(NC(=O)c4ccc(CN(C)C)cc4)cc3)n2)[nH]n1` [Compound 137], the pKi in assay [1] (setting [3]) was 6.70 to 8.30; in assay [2] it was 5.70 to 7.30.
With `Cc1cc(Nc2cc(N3CC(N4CCCC4)C3)nc(Sc3ccc4ncccc4c3)n2)n[nH]1` [Compound 159], the pKi in assay [1] (setting [3]) is 8.30 to 9.00; in assay [2] it was no less than 8.00.
Consider `Cc1cc(Nc2cc(N3CC(O)(C4CC4)C3)nc(Sc3ccc4ccccc4c3)n2)n[nH]1` [Compound 131], for which the pKi in assay [1] (setting [3]) is no less than 9.00; in assay [2], 5.70 to 7.30.
As for `Cc1cc(Nc2cc(N3CCC3)nc(Sc3ccc(NC(=O)C(C)CC(F)(F)F)cc3)n2)[nH]n1` (stereo not drawn) [Compound 127], the pKi in assay [1] (setting [3]) is 8.30 to 9.00; in assay [2] it was 7.30 to 8.00 and > 7.60.
For the molecule `Cc1cc(Nc2cc(N3CCC3)nc(Sc3ccc(NC(=O)c4cc(C)nc(Cl)c4)cc3)n2)[nH]n1` [Compound 149], the pKi in assay [1] (setting [3]) was 8.30 to 9.00; in assay [2], 7.30 to 8.00.
`Cc1cc(Nc2cc(N3CCC3)nc(Sc3ccc(C(=O)N4CCCC4)cc3)n2)n[nH]1` [Compound 22]: the pKi in assay [1] was 6.70 to 8.30; in assay [2], 5.70 to 7.30.
Consider `CC(=O)Nc1cccc(Sc2nc(Nc3cc(C)n[nH]3)cc(N3CC(F)(C4CC4)C3)n2)c1` [Compound 188], for which the values for the pKi in assay [1] (setting [3]) and in assay [2] were 6.70 to 8.30 and 7.30 to 8.00, respectively.
For `CCCNC(=O)Nc1ccc(Sc2nc(Nc3cc(C)[nH]n3)cc(N3CCC3)n2)cc1` [Compound 73], the pKi is 6.70 to 8.30 in assay [1] (setting [3]) and 5.70 to 7.30 in assay [2].
